pKi: −log10 of the molar value.

The source of these data is patent publication US6004957A, “Sulfonamide inhibitors of aspartyl protease” (Vertex Pharmaceuticals, Incorporated, priority 1998, dated 1999).

One assay has as its system HIVIIIb in CCRM-CEM cells. Kind of assay: Anti-viral potency in CCRM-CEM cells acutely infected with HIVIIIb (method of Meek et al.), extracellular p24 antigen. The conditions noted are these: HIV replication, Table VIII, read-out: IC90 Range. In kind it is cell-based, HIV-1. In short, it runs like this: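 Compounds in DMSO were added to CCRM-CEM cells (CD4+ human T-cell lymphoma) acutely infected with HIVIIIb following Meek et al. Inhibition of viral replication was determined from extracellular p24 antigen concentration measured by enzyme immunoassay.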
What is called IC90 is the concentration at which the effect reaches the 90% level. Turning to “(S)-N-1-(3-((3-Acetylamino-4-fluoro-benzenesulfonyl)-benzyl-amino)-(1S,2 syn)-1-benzyl-2-hydroxy-propyl)-2-((quinoline-2-carbonyl)-amino)-succinamide and (S)-N-1-(3-((4-Acetylamino-3-fluoro-benzenesulfonyl)-benzyl-amino)-(1S,2 syn)-1-benzyl-2-hydroxy-propyl)-2-((quinoline-2-carbonyl)-amino)-succinamide [Compound 2]”, the IC90 lay within 101 to 1000 nM.

Staying with this assay, now noted: Human immunodeficiency virus 1, HIV replication, Table VIII, read-out: IC90 Range.
`CC(C)CN(C[C@@H](O)[C@H](Cc1ccccc1)NC(=O)[C@H](CC(N)=O)NC(=O)c1ccc2ccccc2n1)S(=O)(=O)c1ccc(-c2ccccn2)s1` [Compound 12, (S)-N-1-(1-(S)-Benzyl-2-(syn)-hydroxyl-3-(isobutyl-(5-pyridin-2-yl-thiophene-2-sulfonyl)-amino)-propyl)-2-((quinoline-2-carbonyl)-amino)-succinamide]: the IC90 was < 100 nM. On the same count and under the same terms, with `CC(C)CN(C[C@@H](O)[C@H](Cc1ccccc1)NC(=O)[C@@H](NC(=O)OCc1ccccn1)C(C)C)S(=O)(=O)c1ccc(F)cc1` [Compound 26] the figure was 101 to 1000 nM; with `CC(C)CN(C[C@@H](O)[C@H](Cc1ccccc1)NC(=O)OC(C)(C)C)S(=O)(=O)c1cccc(F)c1` [Compound 50], 1000 to 10000 nM; with `CC(C)CN(C[C@@H](O)[C@H](Cc1ccccc1)NC(=O)O[C@H]1CCOC1)S(=O)(=O)N1CCCCC1` [Compound 150, Piperidine-1-sulfonic acid ((2 syn,3S)-2-hydroxy-4-phenyl-3-((S)-tetrahydrofuran-3-yloxycarbonylamino)-butyl)-isobutyl-amide], 101 to 1000 nM. Same read-out and setting: the same measure for `O=C(N[C@@H](Cc1ccccc1)[C@H](O)CN(CC1CCCC1)S(=O)(=O)c1ccc(OC(F)(F)F)cc1)O[C@H]1CCOC1` [Compound 151]: 1000 to 10000 nM; for `C=C(COC)COC(=O)N[C@@H](Cc1ccccc1)[C@H](O)CN(CC(C)C)S(=O)(=O)c1ccc(NC(C)=O)cc1` [Compound 155, N-4-((2-(syn)-Hydroxy-3-((2-methoxymethyl-allyloxycarbonylamino)-4-(S)-phenyl-butyl)-isobutyl-sulfamoyl)-phenyl)-acetamide]: 101 to 1000 nM. On the same count and under the same terms, the same measure for `C=CCOC(=O)N[C@@H](Cc1ccccc1)[C@H](O)CN(CC1CCCC1)S(=O)(=O)c1ccc2c(c1)CCN2C(C)=O` [Compound 156]: 101 to 1000 nM; for `COc1ccc(S(=O)(=O)N(CC2CCCCC2)C[C@@H](O)[C@H](Cc2ccccc2)NC(=O)O[C@H]2CCOC2)cc1` [Compound 158, N-Cyclohexylmethyl-N-((2 syn,3S)-2-hydroxy-4-phenyl-3-((S)-tetrahydrofuran-3-yloxycarbonylamino)-butyl)-4-methoxy-benzenesulfonamide]: < 100 nM; for `O=C(N[C@@H](Cc1ccccc1)[C@H](O)CN(CC1CCCCC1)S(=O)(=O)c1ccc(F)cc1)O[C@H]1CCOC1` [Compound 159, N-Cyclohexylmethyl-4-fluoro-N-((2 syn,3S)-2-hydroxy-4-phenyl-3-((S)-tetrahydrofuran-3-yloxycarbonylamino)-butyl)-benzenesulfonamide]: 101 to 1000 nM.

`CC(=O)Nc1ccc(S(=O)(=O)N(CC2CCCCC2)C[C@@H](O)[C@H](Cc2ccccc2)NC(=O)O[C@H]2CCOC2)cc1` [Compound 160, N-(4-(Cyclohexylmethyl)-((2 syn,3S)-2-hydroxy-4-phenyl-3-((S)-tetrahydrofuran-3-yloxycarbonylamino)-butyl)-sulfamoyl-phenyl)-acetamide]: the IC90 was < 100 nM. The same measure, in the same setting: with `C=C(COC)COC(=O)N[C@@H](Cc1ccccc1)[C@H](O)CN(CC1CCCC1)S(=O)(=O)c1ccc(OC)cc1` [Compound 162] the figure was 1000 to 10000 nM. Still for that read-out and setting: with `COc1ccc(S(=O)(=O)N(CC(C)C)C[C@@H](O)[C@H](Cc2ccccc2)NC(=O)OCc2ccncc2)cc1` [Compound 163, N-((2 syn,3S)-2-Hydroxy-4-phenyl-3-(pyridin-4-yl-methoxycarbonylamino)-butyl)-N-isobutyl-4-methoxy-benzenesulfonamide] the figure was 101 to 1000 nM; with `Cc1ccc(S(=O)(=O)N(CC(C)C)C[C@@H](O)[C@H](Cc2ccccc2)NC(=O)O[C@H]2CCOC2)cc1` [Compound 165, N-((2 syn,3S)-2-Hydroxy-4-phenyl-3-((syn)-tetrahydrofuran-3-yloxycarbonylamino)-butyl)-N-isobutyl-4-methyl-benzenesulfonamide], 101 to 1000 nM; with `O=C(N[C@@H](Cc1ccccc1)[C@H](O)CN(CC1CCCC1)S(=O)(=O)c1ccc(O)cc1)OCc1cccnc1` [Compound 166, N-cyclopentylmethyl-4-hydroxy-N-((2 syn,3S)-2-hydroxy-4-phenyl-3-(pyridin-3-yl-methoxycarbonylamino)-butyl)-benzenesulfonamide], < 100 nM. As for `CC(C)CN(C[C@@H](O)[C@H](Cc1ccccc1)NC(=O)O[C@H]1CCOC1)S(=O)(=O)c1ccc([N+](=O)[O-])cc1` [Compound 167, N-((2 syn,3S)-2-Hydroxy-4-phenyl-3-((S)-tetrahydrofuran-3-yloxycarbonylamino)-butyl)-N-isobutyl-4-nitro-benzenesulfonamide], the IC90 is 101 to 1000 nM. Same read-out and setting: with `O=C(N[C@@H](Cc1ccccc1)[C@H](O)CN(CC1CCCC1)S(=O)(=O)c1ccc(O)cc1)O[C@H]1CCOC1` [Compound 169, N-Cyclopentylmethyl-4-hydroxy-N-((2 syn,3S)-2-hydroxy-4-phenyl-3-((S)-tetrahydrofuran-3-yloxycarbonylamino)-butyl)-benzenesulfonamide] the figure was < 100 nM. Still for that read-out and setting: with `O=C(N[C@@H](Cc1ccccc1)[C@H](O)CN(CC1CCCC1)S(=O)(=O)c1ccc([N+](=O)[O-])cc1)O[C@H]1CCOC1` [Compound 170, N-Cyclopentylmethyl-N-((2 syn,3S)-2-hydroxy-4-phenyl-3-((S)-tetrahydrofuran-3-yloxycarbonylamino)-butyl)-4-nitro-benezensulfonamide] the figure was 101 to 1000 nM; with `Nc1ccc(S(=O)(=O)N(CC2CCCC2)C[C@@H](O)[C@H](Cc2ccccc2)NC(=O)O[C@H]2CCOC2)cc1` [Compound 171, 4-Amino-N-cyclopentylmethyl-N-((2 syn,3S)-2-hydroxy-4-phenyl-3-((S)-tetrahydrofuran-3-yloxycarbonylamino)-butyl)-banzenesulfonamide], < 100 nM; with `Nc1ccc(S(=O)(=O)N(CC2CCCC2)C[C@@H](O)[C@H](Cc2ccccc2)NC(=O)O[C@H]2CCOC2)c(N)c1` [Compound 173, 2,4-Diamino-N-cyclopentylmethyl-N-((2 syn,3S)-2-hydroxy-4-phenyl-3-((S)-tetrahydrofuran-3-yloxycarbonylamino)-butyl)-benzenesulfonamide], < 100 nM. Still for that read-out and setting: with `CC(C)CN(C[C@@H](O)[C@H](Cc1ccccc1)NC(=O)O[C@H]1CCOC1)S(=O)(=O)c1ccc(O)cc1` [Compound 175] the figure was < 100 nM.

`O=C(N[C@@H](Cc1ccccc1)[C@H](O)CN(CC1CCCC1)S(=O)(=O)c1ccc(F)cc1)O[C@H]1CCOC1` [Compound 182, N-Cyclopentylmethyl-4-fluoro-N-((2 syn,3S)-2-hydroxy-4-phenyl-3-((S)-tetrahydrofuran-3-yloxycarbonylamino)-butyl)-benzenesulfonamide]: the IC90 was 101 to 1000 nM. On the same count and under the same terms, the same measure for `O=C(N[C@@H](Cc1ccccc1)[C@H](O)CN(CC1CCCC1)S(=O)(=O)c1ccc(Cl)c(Cl)c1)O[C@H]1CCOC1` [Compound 183, 3,4-Dichloro-N-cyclopentylmethyl-N-((2 syn,3S)-2-hydroxy-4-phenyl-3-((S)-tetrahydrofuran-3-yloxycarbonylamino)-butyl)-benzenesulfonamide]: 101 to 1000 nM. Still for that read-out and setting: with `CC[C@H](C)[C@H](NC(=O)OCc1ccccc1)C(=O)N[C@@H](Cc1ccccc1)[C@H](O)CN(CC(C)C)S(=O)(=O)c1ccc(F)c(NC(C)=O)c1` [Compound 187, Benzyloxycarbonyl-(L)-isoleucine-N-(5-((3-amino-(2 syn,3S)-2-hydroxy-4-phenyl-butyl)-isobutyl-sulfamoyl)-2-fluoro-phenyl)-acetamide] the figure was 101 to 1000 nM; with `CC[C@H](C)[C@H](NC(=O)c1cnc2ccccc2n1)C(=O)N[C@@H](Cc1ccccc1)[C@H](O)CN(CC(C)C)S(=O)(=O)c1ccc(F)c(NC(C)=O)c1` [Compound 188], 1000 to 10000 nM; with `COc1ccc(S(=O)(=O)N(CC2CCCC2)C[C@@H](O)[C@H](CC2CCCCC2)NC(=O)O[C@H]2CCOC2)cc1` [Compound 195, N-((2 syn,3S)-4-Cyclohexyl-2-hydroxy-3-((S)-tetrahydrofuran-3-yloxycarbonylamino)-butyl)-N-cyclopentylmethyl-4-methoxy-benzenesulfonamide], < 100 nM.

The target of another assay is HIV-1 protease (Human immunodeficiency virus type 1 group M subtype B, UniProt P04585). Kind of assay: biochemical. The conditions noted are these: Table VII. The text has this: We measured the inhibition constants of the compounds listed in Table VII against HIV-1 protease using the above-cited method of Pennington et al.
The pKi is the Ki on a negative log10 scale, so that one unit is a factor of ten. A higher pKi goes with a low Ki. The compound `CC(C)CN(C[C@@H](O)[C@H](Cc1ccccc1)NC(=O)[C@H](CC(N)=O)NC(=O)c1ccc2ccccc2n1)S(=O)(=O)c1ccc(-c2ccccn2)s1` [Compound 12, (S)-N-1-(1-(S)-Benzyl-2-(syn)-hydroxyl-3-(isobutyl-(5-pyridin-2-yl-thiophene-2-sulfonyl)-amino)-propyl)-2-((quinoline-2-carbonyl)-amino)-succinamide] had a pKi of 10.00. Same read-out and setting: with `CC(C)CN(C[C@@H](O)[C@H](Cc1ccccc1)NC(=O)[C@@H](NC(=O)OCc1ccccn1)C(C)C)S(=O)(=O)c1ccc(F)cc1` [Compound 26] the figure was 10.00. The same measure, in the same setting: with `CC(C)CN(C[C@@H](O)[C@H](Cc1ccccc1)NC(=O)OC(C)(C)C)S(=O)(=O)c1cccc(F)c1` [Compound 50] the figure was 7.96. The same measure, in the same setting: the same measure for `CC(C)CN(C[C@@H](O)[C@H](Cc1ccccc1)NC(=O)OC(C)(C)C)S(=O)(=O)c1ccc(N)c([N+](=O)[O-])c1` [Compound 62]: 7.14; for `CC(C)CN(C[C@@H](O)[C@H](Cc1ccccc1)NC(=O)OC(C)(C)C)S(=O)(=O)N(C)C` [Compound 68]: 6.92. With `CC(C)N(C[C@@H](O)[C@H](Cc1ccccc1)NC(=O)OC(C)(C)C)S(=O)(=O)c1ccc(F)cc1` [Compound 75], the pKi is 6.54. In turn, `CC(=O)Nc1ccc(S(=O)(=O)N(CC(C)C)C[C@@H](O)[C@H](Cc2ccccc2)NC(=O)OCC2CCOC2)cc1` (stereo partly shown) [Compound 92] showed a pKi of 7.70. On to `O=C(N[C@@H](Cc1ccccc1)[C@H](O)CN(CC1CCCC1)S(=O)(=O)c1ccc2c(c1)OCO2)O[C@H]1CCOC1` [Compound 176], for which the pKi was > 10.00.
